“And” between values parts separate entries of the source, which are not always exact repeats. Identical values can stand only once. Inconclusive results and toxic doses are left out.
Tested on: P388 leukemia ip, CD2F1 mice, survival T/C
Test: NCI In Vivo Anticancer Drug Screen. Data for tumor model P388 Leukemia (intraperitoneal) in CD2F1 (CDF1) mice
Details: endpoint: median survival time, higher = longer survival
How it was run: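 Mice carrying the transplanted tumor received test compound or vehicle. Survival was recorded in each group, and the value is the treated-group measurement divided by that of the vehicle-treated control group.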

[1] = dose: 50.0 mg/kg/injection, schedule: Q01DX009 (ip), vehicle: saline
[2] = dose: 100.0 mg/kg/injection, schedule: Q01DX009 (ip), vehicle: saline
[3] = dose: 200.0 mg/kg/injection, schedule: Q01DX009 (ip), vehicle: saline
[4] = dose: 100.0 mg/kg/injection, schedule: Q01DX001 (ip), vehicle: Klucel (hydroxypropylcellulose) (HPC)
[5] = dose: 400.0 mg/kg/injection, schedule: Q01DX001 (ip), vehicle: Klucel (hydroxypropylcellulose) (HPC)
[6] = dose: 50.0 mg/kg/injection, schedule: Q01DX009 (ip), vehicle: Klucel (hydroxypropylcellulose) (HPC)
[7] = dose: 100.0 mg/kg/injection, schedule: Q01DX009 (ip), vehicle: Klucel (hydroxypropylcellulose) (HPC)
[8] = dose: 200.0 mg/kg/injection, schedule: Q01DX009 (ip), vehicle: Klucel (hydroxypropylcellulose) (HPC)
[9] = dose: 100.0 mg/kg/injection, schedule: Q04DX003 (ip), vehicle: saline with Tween-80
[10] = dose: 200.0 mg/kg/injection, schedule: Q04DX003 (ip), vehicle: saline with Tween-80
[11] = dose: 400.0 mg/kg/injection, schedule: Q04DX003 (ip), vehicle: saline with Tween-80
[12] = dose: 100.0 mg/kg/injection, schedule: Q01DX009 (ip), vehicle: saline with Tween-80
[13] = dose: 200.0 mg/kg/injection, schedule: Q01DX009 (ip), vehicle: saline with Tween-80
[14] = dose: 15.0 mg/kg/injection, schedule: Q01DX005 (ip), vehicle: saline with Tween-80
[15] = dose: 30.0 mg/kg/injection, schedule: Q01DX005 (ip), vehicle: saline with Tween-80
[16] = dose: 60.0 mg/kg/injection, schedule: Q01DX005 (ip), vehicle: saline with Tween-80
[17] = dose: 120.0 mg/kg/injection, schedule: Q01DX005 (ip), vehicle: saline with Tween-80
[18] = dose: 240.0 mg/kg/injection, schedule: Q01DX005 (ip), vehicle: saline with Tween-80
[19] = dose: 25.0 mg/kg/injection, schedule: Q01DX005 (ip), vehicle: Klucel (hydroxypropylcellulose) (HPC)
[20] = dose: 50.0 mg/kg/injection, schedule: Q01DX005 (ip), vehicle: Klucel (hydroxypropylcellulose) (HPC)
[21] = dose: 100.0 mg/kg/injection, schedule: Q01DX005 (ip), vehicle: Klucel (hydroxypropylcellulose) (HPC)
[22] = dose: 200.0 mg/kg/injection, schedule: Q01DX005 (ip), vehicle: Klucel (hydroxypropylcellulose) (HPC)
[23] = dose: 100.0 mg/kg/injection, schedule: Q04DX003 (ip), vehicle: saline
[24] = dose: 200.0 mg/kg/injection, schedule: Q04DX003 (ip), vehicle: saline
[25] = dose: 400.0 mg/kg/injection, schedule: Q04DX003 (ip), vehicle: saline

OCC1OC(Oc2ccc(O)cc2)C(O)C(O)C1O (stereo unspecified)
T/C (dose: 4.5 mg/kg/injection, schedule: Q01DX009 (ip), vehicle: Klucel (hydroxypropylcellulose) (HPC)): 97 % of control | T/C (dose: 9.0 mg/kg/injection, schedule: Q01DX009 (ip), vehicle: Klucel (hydroxypropylcellulose) (HPC)): 90 % of control | T/C (dose: 18.0 mg/kg/injection, schedule: Q01DX009 (ip), vehicle: Klucel (hydroxypropylcellulose) (HPC)): 90 % of control | T/C (dose: 36.0 mg/kg/injection, schedule: Q01DX009 (ip), vehicle: Klucel (hydroxypropylcellulose) (HPC)): 98 % of control | T/C [1]: 102 % of control | T/C [2]: 102 % of control | T/C [3]: 102 % of control | T/C (dose: 400.0 mg/kg/injection, schedule: Q01DX009 (ip), vehicle: saline): 106 % of control

CC1(C)CC(OP(=S)(N2CC2)N2CC2)CC(C)(C)N1O
T/C [4]: 160 % of control | T/C [5]: 187 % of control

Cc1ccc(S(=O)(=O)N=S(CCO)CCO)cc1
T/C [6]: 106 % of control | T/C [7]: 110 % of control | T/C [8]: 108 % of control | T/C (dose: 400.0 mg/kg/injection, schedule: Q01DX009 (ip), vehicle: Klucel (hydroxypropylcellulose) (HPC)): 107 % of control

O=c1cc[nH]c(=S)[nH]1.[Pd]
T/C (dose: 25.0 mg/kg/injection, schedule: Q01DX009 (ip), vehicle: saline): 89 % of control | T/C [1]: 96 % of control | T/C [2]: 91 % of control | T/C [3]: 91 % of control

Cc1nc(C(N)=O)c(=O)[nH]c1C
T/C (dose: 33.0 mg/kg/injection, schedule: Q04DX003 (ip), vehicle: saline): 100 % of control | T/C (dose: 50.0 mg/kg/injection, schedule: Q04DX003 (ip), vehicle: saline): 100 % of control | T/C (dose: 75.0 mg/kg/injection, schedule: Q04DX003 (ip), vehicle: saline): 100 % of control | T/C [9]: 100 % of control | T/C [10]: 106 % of control | T/C [11]: 106 % of control

CCCSCCCCSCCC
T/C [12]: 100 % of control | T/C [13]: 108 % of control

COc1cc(C)c(/C(=N/O)n2nnc(-c3ccccc3)n2)c(C)c1
T/C [14]: 98 % of control | T/C [15]: 100 % of control | T/C [16]: 100 % of control and 91 % of control

CCOC(=O)C(Cc1ccc(O)cc1)Nc1nc2ccccc2o1 (stereo unspecified)
T/C (dose: 50.0 mg/kg/injection, schedule: Q01DX009 (ip), vehicle: saline with Tween-80): 95 % of control | T/C [12]: 105 % of control | T/C [13]: 103 % of control | T/C (dose: 400.0 mg/kg/injection, schedule: Q01DX009 (ip), vehicle: saline with Tween-80): 96 % of control

CCOc1cc2c(cc1C/C=C/c1ccc(OC)cc1)OCO2
T/C [16]: 103 % of control | T/C [17]: 103 % of control | T/C [18]: 113 % of control

CC12CC(=O)NC(=O)N1CCS2 (stereo unspecified)
T/C [6]: 106 % of control | T/C [7]: 100 % of control | T/C [8]: 92 % of control

C1OCOCO1
T/C [19]: 98 % of control | T/C [20]: 95 % of control | T/C [21]: 95 % of control | T/C [22]: 109 % of control | T/C (dose: 400.0 mg/kg/injection, schedule: Q01DX005 (ip), vehicle: Klucel (hydroxypropylcellulose) (HPC)): 101 % of control

Cc1c(O)c(O)cc[n+]1C1OC(CO)C(O)C1O (stereo unspecified)
T/C (dose: 100.0 mg/kg/injection, schedule: Q01DX005 (ip), vehicle: saline): 98 % of control | T/C (dose: 200.0 mg/kg/injection, schedule: Q01DX005 (ip), vehicle: saline): 100 % of control | T/C (dose: 400.0 mg/kg/injection, schedule: Q01DX005 (ip), vehicle: saline): 102 % of control

O=C(O)C(=O)O.[Cu+2].[NH-]C1CCCC2CCC[N-]C12 (stereo unspecified)
T/C (dose: 7.5 mg/kg/injection, schedule: Q04DX002 (ip), vehicle: suspension in saline): 89 % of control | T/C (dose: 15.0 mg/kg/injection, schedule: Q04DX002 (ip), vehicle: suspension in saline): 92 % of control | T/C (dose: 30.0 mg/kg/injection, schedule: Q04DX002 (ip), vehicle: suspension in saline): 90 % of control

O=C1CNC(=O)CN1
T/C [1]: 96 % of control | T/C [2]: 90 % of control | T/C [23]: 100 % of control | T/C [3]: 97 % of control | T/C [24]: 91 % of control | T/C [25]: 100 % of control

CC1(C)C(C)(C)C1(Cl)S(C)(=O)=O
T/C [9]: 101 % of control | T/C [10]: 106 % of control | T/C [11]: 106 % of control

COc1cc(C(C)c2cc3c(cc2O)OCO3)cc(OC)c1OC (stereo unspecified)
T/C [14]: 100 % of control | T/C [15]: 98 % of control | T/C [16]: 103 % of control and 107 % of control and 108 % of control | T/C [17]: 100 % of control and 114 % of control and 122 % of control | T/C [18]: 123 % of control | T/C (dose: 480.0 mg/kg/injection, schedule: Q01DX005 (ip), vehicle: saline with Tween-80): 86 % of control

CC(C)(C)SC(=O)C1(C(OC(=O)c2ccccc2)c2ccccc2)CC1 (stereo unspecified)
T/C (dose: 100.0 mg/kg/injection, schedule: Q04DX003 (ip), vehicle: Klucel (hydroxypropylcellulose) (HPC)): 96 % of control | T/C (dose: 200.0 mg/kg/injection, schedule: Q04DX003 (ip), vehicle: Klucel (hydroxypropylcellulose) (HPC)): 100 % of control | T/C (dose: 400.0 mg/kg/injection, schedule: Q04DX003 (ip), vehicle: Klucel (hydroxypropylcellulose) (HPC)): 89 % of control

Nc1nc(Cl)c2[nH]c(Cl)nc2n1
T/C (dose: 12.5 mg/kg/injection, schedule: Q01DX005 (ip), vehicle: Klucel (hydroxypropylcellulose) (HPC)): 104 % of control | T/C [19]: 102 % of control | T/C [20]: 100 % of control and 96 % of control | T/C [21]: 99 % of control

CC(N)CCc1ccccc1 (stereo unspecified)
T/C (dose: 12.5 mg/kg/injection, schedule: Q01DX009 (ip), vehicle: saline sonified): 100 % of control | T/C (dose: 25.0 mg/kg/injection, schedule: Q01DX009 (ip), vehicle: saline sonified): 100 % of control | T/C (dose: 50.0 mg/kg/injection, schedule: Q01DX009 (ip), vehicle: saline sonified): 100 % of control

CC(=O)OC1C(C)C2CCC13CC=C(C)CC23 (stereo unspecified)
T/C [20]: 101 % of control | T/C [21]: 108 % of control | T/C [22]: 110 % of control

CCc1cccc(C)c1NC(=O)C(=O)C(C#N)c1ccc(CC#N)cc1 (stereo unspecified)
T/C [16]: 101 % of control | T/C [17]: 100 % of control

COc1ccc(CCCc2cc3c(cc2OC)OCO3)cc1
T/C (dose: 60.0 mg/kg/injection, schedule: Q01DX005 (ip), vehicle: Klucel (hydroxypropylcellulose) (HPC)): 100 % of control | T/C (dose: 120.0 mg/kg/injection, schedule: Q01DX005 (ip), vehicle: Klucel (hydroxypropylcellulose) (HPC)): 100 % of control | T/C (dose: 240.0 mg/kg/injection, schedule: Q01DX005 (ip), vehicle: Klucel (hydroxypropylcellulose) (HPC)): 97 % of control

CC(=O)c1cc2c(cc1I)OCO2
T/C [4]: 101 % of control | T/C (dose: 200.0 mg/kg/injection, schedule: Q01DX001 (ip), vehicle: Klucel (hydroxypropylcellulose) (HPC)): 99 % of control | T/C [5]: 101 % of control

O=C1Nc2ccccc2/C1=N/N=C/c1ccc(Cl)cc1Cl
T/C [6]: 100 % of control | T/C [7]: 88 % of control and 90 % of control | T/C [8]: 100 % of control and 98 % of control

Cc1ccccc1N1C(=O)[N+](C)(C)N=C1[O-]
T/C [23]: 109 % of control and 113 % of control | T/C [24]: 99 % of control and 113 % of control | T/C [25]: 91 % of control

COC(=O)c1ccc(SCC/C(CN2C(=O)c3ccccc3C2=O)=N\O)cc1
T/C [6]: 95 % of control | T/C [7]: 99 % of control | T/C [8]: 88 % of control

O=C1c2ccccc2C(=O)c2c3c(cc(NCCNCCO)c21)N(CCO)CCN3
T/C (dose: 6.25 mg/kg/injection, schedule: Q01DX009 (ip), vehicle: DMSO): 104 % of control | T/C (dose: 12.5 mg/kg/injection, schedule: Q01DX009 (ip), vehicle: DMSO): 123 % of control | T/C (dose: 25.0 mg/kg/injection, schedule: Q01DX009 (ip), vehicle: DMSO): 155 % of control | T/C (dose: 50.0 mg/kg/injection, schedule: Q01DX009 (ip), vehicle: DMSO): 163 % of control | T/C (dose: 100.0 mg/kg/injection, schedule: Q01DX009 (ip), vehicle: DMSO): 101 % of control | T/C (dose: 200.0 mg/kg/injection, schedule: Q01DX009 (ip), vehicle: DMSO): 93 % of control
